This is an account of results in patent US12097261B2, “CDK2 degraders and uses thereof” (Kymera Therapeutics, Inc., priority 2021, dated 2024).

Common to all, as to type: cell-based
One assay concerns the target T1, CDK2 (Homo sapiens, UniProt P24941).
T1 construct: endogenous in cells; host or cells: OVCAR-8
As to the kind of experiment: CDK2 degradation by immunoblotting in OVCAR-8 cells. The conditions noted are these: 24 h. The procedure:
(§1) CDK2 and CDK1 Degradation by Immunoblotting
(§2) Ovarian cancer cell line OVCAR-8 were cultured in 12-well plates in complete growth medium. A serial dilution of each compound was added to individual wells from a 2× stock solution, and cells were cultured for 24 hours. Cells were collected by centrifugation, and cell pellets lysed with addition of chilled RIPA buffer supplemented with protease/phosphatase inhibitors followed by incubation for 20 minutes on ice. Lysates were clarified by centrifugation and 5×SDS loading buffer was added to the supernatant followed by heating to 100° C. for 10 minutes. An aliquot of the samples were separated by SDS-PAGE and transferred to a nitrocellulose membrane. Immunoblotting was performed according to standard procedures using anti-CDK2 primary antibody (Abcam ab32147) at 1:1000 dilution and IRDye 800CW goat anti-Rabbit secondary antibody (LICOR) and imaged using a LICOR Odyssey instrument. Blots were stained with anti-beta-Actin primary antibody (Cell Signaling Technology mAb #4970) for normalization. The normalized CDK2/Actin values were calculated as a percent of DMSO treated cells and plotted to determine the concentration at which 50% of CDK2 signal is decreased (DC50). The determination of CDK1 degradation was determined similarly using anti-CDK1 primary antibody (Abcam ab131450).
In general terms: A western blot detects proteins with antibodies after separation by electrophoresis.

The target in a further assay is T2, CDK1 (Homo sapiens, UniProt P06493).
T2 construct: endogenous in cells; host or cells: OVCAR-8
T2 sequence (P06493 whole entry): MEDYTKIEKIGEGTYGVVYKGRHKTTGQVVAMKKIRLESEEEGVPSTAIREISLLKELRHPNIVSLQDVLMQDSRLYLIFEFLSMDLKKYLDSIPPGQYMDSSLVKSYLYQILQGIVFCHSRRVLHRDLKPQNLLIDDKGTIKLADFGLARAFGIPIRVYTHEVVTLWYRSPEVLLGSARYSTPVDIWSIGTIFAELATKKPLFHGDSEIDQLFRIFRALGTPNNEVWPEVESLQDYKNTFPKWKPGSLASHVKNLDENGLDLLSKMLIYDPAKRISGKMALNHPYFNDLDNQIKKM
As to the kind of experiment: CDK1 degradation by immunoblotting in OVCAR-8 cells. The conditions noted are these: 24 h. The method, then:
as §1, §2

The target of the next assay is T3, CCNE1 (Homo sapiens, UniProt P24864+P24941).
T3 construct: endogenous in cells; host or cells: MKN-1
The assay is described as follows: CCNE1 degradation in MKN-1 cells by immunoblotting. The conditions noted are these: 24 h, by WB, read-out: Cyclin E1 DC50, (MKN-1 by WB). The method, then:
CCNE1 Degradation in MKN-1 Cells
Gastric cancer cell line MKN-1 were cultured in 6-well plates in complete growth medium. A serial dilution of each compound was added to individual wells from a 2× stock solution, and cells were cultured for 24 hours. Following 24-hr incubation, cells were lysed with addition of chilled RIPA buffer supplemented with protease/phosphatase inhibitors followed by incubation for 20 minutes on ice. Lysates were clarified by centrifugation and 5×SDS loading buffer was added to the supernatant followed by heating to 100° C. for 10 minutes. An aliquot of the samples were separated by SDS-PAGE and transferred to a nitrocellulose membrane. Immunoblotting was performed according to standard procedures using anti-CCNE1 primary antibody (Abcam #ab33911) at 1:1000 dilution and IRDye 800CW goat anti-Rabbit secondary antibody (LICOR) and imaged using a LICOR Odyssey instrument. Blots were stained with anti-beta-Actin primary antibody (Cell Signaling Technology mAb 43700) for normalization. The normalized CCNE1/Actin values were calculated as a percent of DMSO treated cells and plotted to determine the concentration at which 50% of CCNE1 signal is decreased.

`CC(C)NC(=O)O[C@@H]1CC[C@H](c2cc(NC(=O)c3cnn(CCCCCCCCCCCc4cccc5c4n(C)c(=O)n5C4CCC(=O)NC4=O)c3)[nH]n2)C1` (stereo partly drawn) [I-97]: the half-maximal degradation concentration (DC50) at CDK2 is 10 to 100 nM; at CDK1, 1000 to 5000 nM.

For the molecule `CC(C)NC(=O)O[C@@H]1CC[C@H](c2cc(NC(=O)c3cc(COCCCCCCCCCc4ccc5c(c4)n(C)c(=O)n5[C@H]4CCC(=O)NC4=O)nn3C)n[nH]2)C1` [I-99], the results for the 50% degradation concentration (DC50) at CDK2 and on CDK1 were below 10 nM and above 5000 nM, respectively.

As to `CC(C)NC(=O)O[C@@H]1CC[C@H](c2cc(NC(=O)c3cc(COCCCCCCCCCc4cccc5c4n(C)c(=O)n5[C@H]4CCC(=O)NC4=O)nn3C)n[nH]2)C1` [I-100], the DC50 on CDK2 is below 10 nM; at CDK1, 100 to 1000 nM.

In the case of `CC(C)NC(=O)O[C@@H]1CC[C@H](c2cc(CC(=O)c3cc(COCCCCCCCc4cccc5c4n(C)c(=O)n5C4CCC(=O)NC4=O)nn3C)[nH]n2)C1` (stereo partly drawn) [I-101], the 50% degradation concentration (DC50) is below 10 nM at CDK2 and 100 to 1000 nM on CDK1.

Regarding `CC(C)NC(=O)O[C@@H]1CC[C@H](c2cc(NC(=O)Cc3cnn(CCCCCCCCCc4ccc5c(c4)n(C)c(=O)n5C4CCC(=O)NC4=O)c3)[nH]n2)C1` (stereo partly drawn) [I-102], the DC50 is 10 to 100 nM at CDK2 and 100 to 1000 nM at CDK1.

Turning to `CC(C)NC(=O)O[C@@H]1CC[C@H](c2cc(NC(=O)Cc3cnn(CCCCCCCc4ccc5c(c4)n(C)c(=O)n5C4CCC(=O)NC4=O)c3)n[nH]2)C1` (stereo partly drawn) [I-103, (1R,3S)-3-(3-(2-(1-(7-(1-(2,6-dioxopiperidin-3-yl)-3-methyl-2-oxo-2,3-dihydro-1H-benzo[d]imidazol-5-yl)heptyl)-1H-pyrazol-4-yl)acetamido)-1H-pyrazol-5-yl)cyclopentyl isopropylcarbamate], the DC50 at CDK2 was 10 to 100 nM; on CDK1, above 5000 nM.

`CC(C)NC(=O)O[C@@H]1CC[C@H](c2cc(NC(=O)Cc3cnn(CCCCCCCCCc4cccc5c4n(C)c(=O)n5C4CCC(=O)NC4=O)c3)[nH]n2)C1` (stereo partly drawn) [I-104]: the figures for the DC50 on CDK2 and on CDK1 were 10 to 100 nM and 1000 to 5000 nM, respectively.

Regarding `Cc1cc(S(=O)(=O)NCCO[C@H]2CC[C@H](CN3CCC(c4ccc5c(c4)n(C)c(=O)n5C4CCC(=O)NC4=O)CC3)CC2)ccc1Nc1ncc2cc(Cl)c(=O)n(C3CCCC3)c2n1` (stereo partly drawn) [I-108], the DC50 at CDK2 is below 10 nM; at CDK1 it was 100 to 1000 nM; on CCNE1 it was below 10 nM.

On to `Cc1cc(S(=O)(=O)NCCO[C@H]2CC[C@H](CN3CCC(c4ccc5c(c4)n(C)c(=O)n5C4CCC(=O)NC4=O)CC3)CC2)ccc1Nc1ncc2ccc(=O)n(C3CCCC3)c2n1` (stereo partly drawn) [I-109], for which the figures for the DC50 at CDK2, on CDK1 and on CCNE1 were below 10 nM, 100 to 1000 nM and below 10 nM, respectively.

With `Cc1cc(S(=O)(=O)N[C@H]2CC[C@H](OCCOCCCc3ccc4c(c3)n(C)c(=O)n4C3CCC(=O)NC3=O)CC2)ccc1Nc1ncc2ccc(=O)n(C3CCCC3)c2n1` (stereo partly drawn) [I-110], the DC50 on CDK2 was below 10 nM; at CDK1, 1000 to 5000 nM.

For `Cc1cc(S(=O)(=O)NCCOC2CC3(C2)CN(Cc2ccc4c(c2)n(C)c(=O)n4C2CCC(=O)NC2=O)C3)ccc1Nc1ncc2ccc(=O)n(C3CCCC3)c2n1` (stereo not drawn) [I-111], the DC50 on CDK2 is 10 to 100 nM; at CDK1, 1000 to 5000 nM.

With `Cc1cc(S(=O)(=O)N2CCC(CN(C)C3CCN(c4cccc5c4n(C)c(=O)n5C4CCC(=O)NC4=O)CC3)CC2)ccc1Nc1ncc2ccc(=O)n(C3CCCC3)c2n1` (stereo not drawn) [I-114], the DC50 at CDK2 was below 10 nM; at CDK1, 1000 to 5000 nM.

As for `Cc1cc(S(=O)(=O)NCCO[C@H]2CC[C@H](N(C)CC3CCN(c4ccc5c(c4)n(C)c(=O)n5C4CCC(=O)NC4=O)CC3)CC2)ccc1Nc1ncc2ccc(=O)n(C3CCCC3)c2n1` (stereo partly drawn) [I-117], the DC50 at CDK2 was below 10 nM; at CDK1, 100 to 1000 nM; at CCNE1 it was below 10 nM.

In the case of `Cc1cc(S(=O)(=O)NCCOC2CCC3(CC2)CCN(CCCc2ccc4c(c2)n(C)c(=O)n4C2CCC(=O)NC2=O)CC3)ccc1Nc1ncc2ccc(=O)n(C3CCCC3)c2n1` (stereo not drawn) [I-124], the half-maximal degradation concentration (DC50) was below 10 nM at CDK2 and 1000 to 5000 nM on CDK1.

Turning to `Cc1cc(S(=O)(=O)NCCOC2CC3(C2)CN(CC#Cc2ccc4c(c2)n(C)c(=O)n4C2CCC(=O)NC2=O)C3)ccc1Nc1ncc2ccc(=O)n(C3CCCC3)c2n1` (stereo not drawn) [I-126], the DC50 on CDK2 is below 10 nM; on CDK1 it was 1000 to 5000 nM.

`Cc1cc(S(=O)(=O)NCCOCCOCCOCCOCCCc2ccc3c(c2)n(C)c(=O)n3C2CCC(=O)NC2=O)ccc1Nc1ncc2c(C)cc(=O)n(C3CCCC3)c2n1` (stereo not drawn) [I-138]: the half-maximal degradation concentration (DC50) on CDK2 and at CDK1 was above 5000 nM each time.

For `Cc1cc(S(=O)(=O)NCCOCCOCCOCCOCC(=O)N[C@H](C(=O)N2C[C@H](O)C[C@H]2C(=O)NCc2ccc(-c3scnc3C)cc2)C(C)(C)C)ccc1Nc1ncc2ccc(=O)n(C3CCCC3)c2n1` [I-139], the DC50 on CDK2 and on CDK1 was above 5000 nM in each case.

`CC(C)NC(=O)O[C@@H]1CC[C@H](c2cc(NC(=O)c3cnn(CCCCCCCCCCCc4ccn5c(N6CCC(=O)NC6=O)cnc5c4)c3)[nH]n2)C1` [I-142]: the figures for the DC50 at CDK2 and at CDK1 were 10 to 100 nM and above 5000 nM, respectively.

As for `CC(C)NC(=O)O[C@H]1CC[C@@H](c2cc(NC(=O)c3cc(COCCCCCCCCCc4ccn5c(N6CCC(=O)NC6=O)cnc5c4)nn3C)[nH]n2)C1` [I-145], the DC50 was below 10 nM at CDK2 and 100 to 1000 nM on CDK1.

Regarding `Cc1cc(S(=O)(=O)NCCOCCOCCCc2ccc3c(c2)n(C)c(=O)n3C2CCC(=O)NC2=O)ccc1Nc1ncc2ccc(=O)n(C3CCCC3)c2n1` (stereo not drawn) [I-146], the DC50 at CDK2 was below 10 nM; at CDK1, 1000 to 5000 nM.

On to `CN[C@@H](C)C(=O)N[C@H](C(=O)N1CCC[C@H]1c1nc(C(=O)c2cccc(OCCCCCCCCCCCn3cc(C(=O)Nc4cc([C@H]5CC[C@@H](OC(=O)NC(C)C)C5)n[nH]4)cn3)c2)cs1)C1CCCCC1` [I-148, (1R,3S)-3-(5-(1-(11-(3-(2-((S)-1-((S)-2-cyclohexyl-2-((S)-2-(methylamino)propanamido)acetyl)pyrrolidin-2-yl)thiazole-4-carbonyl)phenoxy)undecyl)-1H-pyrazole-4-carboxamido)-1H-pyrazol-3-yl)cyclopentyl isopropylcarbamate], for which the DC50 on CDK2 and on CDK1 was 1000 to 5000 nM in each case.

On to `CC(C)NC(=O)O[C@H]1CC[C@@H](c2cc(NC(=O)c3ccnn3CCOCCOCCOCCOCCCc3ccc4c(c3)n(C)c(=O)n4C3CCC(=O)NC3=O)n[nH]2)C1` (stereo partly drawn) [I-149], for which the half-maximal degradation concentration (DC50) on CDK2 was 10 to 100 nM; on CDK1 it was above 5000 nM.

For `Cc1cc(S(=O)(=O)NCCOCCOCCCc2ccc3c(c2)n(C)c(=O)n3C2CCC(=O)NC2=O)ccc1Nc1ncc2c(n1)N(C1CCCC1)C(=O)C21CC1` (stereo not drawn) [I-150], the DC50 on CDK2 and on CDK1 was above 5000 nM each time.

As to `CC(C)NC(=O)O[C@H]1CC[C@@H](c2cc(NC(=O)c3ccnn3CCN3CCN(CCOCCCc4ccc5c(c4)n(C)c(=O)n5C4CCC(=O)NC4=O)CC3)[nH]n2)C1` (stereo partly drawn) [I-151], the DC50 at CDK2 was 1000 to 5000 nM; at CDK1, above 5000 nM.

What is called DC50 is the midpoint of the concentration-degradation curve.
